Assay results taken from US20110178118A1, “PALONOSETRON FOR THE TREATMENT OF CHEMOTHERAPY INDUCED EMESES” (priority 2002, published 2011).

Test: Systemic exposure of palonosetron (plasma, HPLC-radioimmunoassay)
Assay type: in vivo, dogs
Details: 100 to 1000 μg/kg

Cl.O=C1c2cccc3c2[C@H](CCC3)CN1[C@@H]1CN2CCC1CC2 [Palonosetron, (3aS)-2,3,3a,4,5,6-Hexahydro-2-[(S)-1-Azabicyclo[2.2.2]oct-3-yl]2,3,3a,4,5,6-hexahydro-1-oxo-1Hbenz[de]isoquinoline hydrochloride]
dose proportionality of systemic exposure (AUC0-4hr): approximately dose-proportional
